# Assay results reported in the supplement of paper PMC11208160.
# Experiment: recombinant barcode read abundance after kanamycin selection (control-corrected) (log10(CPM+1)); higher = more efficient recombination; sequences stand for … in AGTGCAGAGAAAATCGGCCAGTTTTCTCTGCCTGCAGTCCGCATGCCGT…AGATTTATGCAGCGGACTGCCTTTCTCCCAAAGTGATAAACCGGACAGTATCATGGACCGGTTTTCCCGGTAATCCGTATTTGCAAGGTTGGTTTCACT; site = the 11-nt target
# In short: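 Pooled E. coli screen pairing targets with IS621 bridge RNA target-binding loops. Each oligo (promoter, target, barcode, J23119-driven first 104 bridge RNA bases) was Gibson-cloned into a vector with the remaining 73 bp and T7-inducible recombinase, then co-electroporated with a donor plasmid. Two replicates each were plated on chloramphenicol/ampicillin LB agar (control) or chloramphenicol/ampicillin/kanamycin with 0.1 mM IPTG. Recombination efficiency is recombinant-junction barcode counts as CPM, averaged, control-corrected, reported as log10(CPM+1).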
# 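Also: IS621 recombinase and bridge RNA in Escherichia coli cells.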
row,Sequence,recombinant barcode read abundance (log10)
1,ATCACGTCTTGGGTTCTAACCTGTTGCCT (site CAGCATCCTCT),0.0385
2,ATCAGTTCTTGGGTTCTAACCTGTTGCTG (site ATCAGTTCTCA),0.074
3,ATCAGTTCTTGGGTTCTAACCTGTTGCTG (site GATTTCGCTAG),0.155
4,ATCCAACCTTGGGTTCTAACCTGTTGCCT (site ATCCAACCTAG),1.89
5,ATCCAACCTTGGGTTCTAACCTGTTGCCT (site ATCCACCCTAG),0.123
6,ATCCAACCTTGGGTTCTAACCTGTTGCCT (site ATCCAGCCTAG),0.348
7,ATCCAACCTTGGGTTCTAACCTGTTGCCT (site ATCCATCCTAG),0.0128
8,ATCCACCCTTGGGTTCTAACCTGTTGCCT (site ATCCAACCTAG),0.15
9,ATCCACCCTTGGGTTCTAACCTGTTGCCT (site ATCCACCCTAG),2.07
10,ATCCACCCTTGGGTTCTAACCTGTTGCCT (site ATCCAGCCTAG),0.207
11,ATCCACCCTTGGGTTCTAACCTGTTGCCT (site ATCCATCCTAG),0.0749
12,ATCCACCCTTGGGTTCTAACCTGTTGCGG (site ATCCACCCTCC),3.07
13,ATCCACCCTTGGGTTCTAACCTGTTGCGG (site GACCACCCTCC),0.218
14,ATCCATCCTTGGGTTCTAACCTGTTGCCT (site ATCCAACCTAG),0.00851
15,ATCCATCCTTGGGTTCTAACCTGTTGCCT (site ATCCACCCTAG),0.0821
16,ATCCATCCTTGGGTTCTAACCTGTTGCCT (site ATCCAGCCTAG),0.0583
17,ATCCATCCTTGGGTTCTAACCTGTTGCCT (site ATCCATCCTAG),0.969
18,ATCCCATCTTGGGTTCTAACCTGTTGCCT (site ATACCATCTAG),0.383
19,ATCCCATCTTGGGTTCTAACCTGTTGCCT (site ATCCCATCTAG),0.619
20,ATCCCATCTTGGGTTCTAACCTGTTGCCT (site ATGCCATCTAG),0.0333
21,ATCCCATCTTGGGTTCTAACCTGTTGCCT (site ATTCCATCTAG),0.0512
22,ATCCCCTCTTGGGTTCTAACCTGTTGCCT (site ATCCCCTCTAG),2.53

row,Sequence,recombinant barcode read abundance (log10)
1,ATCCCCTCTTGGGTTCTAACCTGTTGCCT (site ATCGCCTCTAG),0.031
2,ATCGAGTCTTGGGTTCTAACCTGTTGCCT (site AACGAGTCTAG),0.139
3,ATCGAGTCTTGGGTTCTAACCTGTTGCCT (site ACCGAGTCTAG),1.11
4,ATCGAGTCTTGGGTTCTAACCTGTTGCCT (site AGCGAGTCTAG),0.734
5,ATCGAGTCTTGGGTTCTAACCTGTTGCCT (site ATCGAGTCTAG),1.56
6,ATCGATGCTTGGGTTCTAACCTGTTGCCT (site ATCGATGCTAG),0.545
7,ATCGATGCTTGGGTTCTAACCTGTTGCCT (site ATCTATTCTAG),0.0828
8,ATCGCCTCTTGGGTTCTAACCTGTTGCCT (site ATCCCCTCTAG),0.328
9,ATCGCCTCTTGGGTTCTAACCTGTTGCCT (site ATCGCCTCTAG),0.742
10,ATCGGAGCTTGGGTTCTAACCTGTTGCGG (site ATCGGAGCTCA),0.135
11,ATCGGAGCTTGGGTTCTAACCTGTTGCGG (site ATCGGAGCTCC),1.7
12,ATCGGAGCTTGGGTTCTAACCTGTTGCGG (site ATCGGAGCTCG),0.424
13,ATCGGAGCTTGGGTTCTAACCTGTTGCGG (site ATCGGAGCTCT),0.592
14,ATCGTATCTTGGGTTCTAACCTGTTGCGC (site ATCGTATCTGC),0.068
15,ATCGTATCTTGGGTTCTAACCTGTTGCGC (site GGGCAGGCTAG),0.832
16,ATCTCAACTTGGGTTCTAACCTGTTGCCT (site ACCTTAACTAG),0.0254
17,ATCTCAACTTGGGTTCTAACCTGTTGCCT (site ATCTCAACTAG),0.118
18,ATCTTACCTTGGGTTCTAACCTGTTGCCG (site ATCTTACCTCG),0.448
19,ATCTTACCTTGGGTTCTAACCTGTTGCCG (site GTCTTCCCTCG),0.11
20,ATCTTATCTTGGGTTCTAACCTGTTGCCT (site ATCTTAACTAG),0.0526
21,ATCTTATCTTGGGTTCTAACCTGTTGCCT (site ATCTTACCTAG),0.262
22,ATCTTATCTTGGGTTCTAACCTGTTGCCT (site ATCTTAGCTAG),0.0977

row,Sequence,recombinant barcode read abundance (log10)
1,ATCTTATCTTGGGTTCTAACCTGTTGCCT (site ATCTTATCTAG),0.208
2,ATGAACCCTTGGGTTCTAACCTGTTGCGT (site ATGAACCCTAC),1.88
3,ATGAACCCTTGGGTTCTAACCTGTTGCGT (site TTGAACCCTAC),0.659
4,ATGAAGCCTTGGGTTCTAACCTGTTGCTT (site ATCAAGCCTAA),0.0285
5,ATGAAGCCTTGGGTTCTAACCTGTTGCTT (site ATGAAGCCTAA),0.107
6,ATGACTACTTGGGTTCTAACCTGTTGCTC (site ATGACTACTGA),0.423
7,ATGACTACTTGGGTTCTAACCTGTTGCTC (site ATGACTACTTA),0.135
8,ATGAGGTCTTGGGTTCTAACCTGTTGCTC (site ATGAGCTCTTA),0.194
9,ATGAGGTCTTGGGTTCTAACCTGTTGCTC (site ATGAGGTCTGA),1.43
10,ATGATTACTTGGGTTCTAACCTGTTGCCT (site ATAGTTACTAG),0.0836
11,ATGATTACTTGGGTTCTAACCTGTTGCCT (site ATGATTACTAG),0.385
12,ATGCAACCTTGGGTTCTAACCTGTTGCCT (site ATGCAAACTAG),0.216
13,ATGCAACCTTGGGTTCTAACCTGTTGCCT (site ATGCAACCTAG),0.827
14,ATGCAACCTTGGGTTCTAACCTGTTGCCT (site ATGCAAGCTAG),0.362
15,ATGCAACCTTGGGTTCTAACCTGTTGCCT (site ATGCAATCTAG),0.293
16,ATGCACCCTTGGGTTCTAACCTGTTGCCT (site ATGCACCCTAG),2
17,ATGCACCCTTGGGTTCTAACCTGTTGCCT (site ATGCGCCCTAG),0.977
18,ATGCCGACTTGGGTTCTAACCTGTTGCCT (site ATGCCAACTAG),0.101
19,ATGCCGACTTGGGTTCTAACCTGTTGCCT (site ATGCCCACTAG),0.0898
20,ATGCCGACTTGGGTTCTAACCTGTTGCCT (site ATGCCGACTAG),1.02
21,ATGCCGACTTGGGTTCTAACCTGTTGCCT (site ATGCCTACTAG),0.11
22,ATGCGAGCTTGGGTTCTAACCTGTTGCCG (site ATGCGAGCTCA),0.177
